Experimental data from US5530126A, “Process for the preparation of substituted 6-(pyrazol-3yl)-1,4-benzoxazin-3-ones” (Monsanto Company, priority 1994, dated 1996).

What was measured:
Assay type in all cases: in vivo
Yellow nutsedge [1] = test: Post-emergence herbicide test; conditions: Cyperus, 11.21 kg/ha, read-out: % plant inhibition (Yens)
Description: (§1) Topsoil is placed in aluminum pans having holes in the bottom and compacted to a depth of 0.95 to 1.27 cm from the top of the pan. A predetermined number of seeds of each of several dicotyledonous and monocotyledonous annual plant species and/or vegetative propagules for the perennial plant species are placed on the soil and pressed into the soil surface. The seeds and/or vegetative propagules are covered with soil and leveled. The pans are then placed on a bench in the greenhouse and watered from below as needed. After the plants reach the desired age (two to three weeks), each pan, is removed individually to a spraying chamber and sprayed by means of an atomizer, operating at a spray pressure of 170.3 kPa (10 psig) at the application rates noted. In the spray solution is an amount of an emulsifying agent mixture to give a spray solution or suspension which contains about 0.4% by volume of the emulsifier. The spray solution or suspension contains a sufficient amount of the candidate chemical in order to give application rates of the active ingredient corresponding to those shown in Tables 8 and 8A, while applying a total amount of solution or suspension equivalent to 1870 L/Ha (200 gallons/acre). The pans were returned to the greenhouse and watered as before and the injury to the plants as compared to the control is observed at approximately 10-14 days (usually 11 days) and in some instances observed again at 24-28 days (usually 25 days) after spraying. The post-emergent herbicidal activity shown in these tables is the percent inhibition of each plant species.

Seedling johnsongrass [2] = test: Post-emergence herbicide test; conditions: Sorghum halepense, 11.21 kg/ha, read-out: % plant inhibition (Sejg)
Description: as §1

Annual bluegrass [3] = test: Post-emergence herbicide test; conditions: 11.21 kg/ha, read-out: % plant inhibition (Anbg)
Description: as §1

Velvetleaf [4] = test: Pre-emergence herbicide test; conditions: Abutilon theophrasti, 11.21 kg/ha, read-out: % plant inhibition (Vele)
Procedure: (§2) The tests for pre-emergence herbicide activity are conducted as follows:
(§3) Topsoil is placed in an aluminum pan and compacted to a depth of 0.95 to 1.27 cm from the top of the pan. On the top of the soil is placed a predetermined number of seeds of each of several monocotyledonous and dicotyledonous annual plant species and/or vegetative propagules of various perennial plant species. A known amount of the active ingredient dissolved or suspended in an organic solvent, e.g., acetone, or water as carrier is then applied directly to the seed bed, which is then covered with a layer of untreated topsoil to level fill the pan. After treatment, the pans are moved to a greenhouse bench where they are watered from below as needed to give adequate moisture for germination and growth.
(§4) Approximately 10-14 days (usually 11 days) after seeding and treating, the pans are observed and the results (% inhibition) are recorded.
(§5) Tables 7 and 7A below summarize the results of the pre-emergence herbicidal activity tests of compounds of this invention in weeds. The herbicidal rating shown in these tables is the percent inhibition of each plant species. The plant species usually regarded as weeds which are utilized in one set of tests, the data for which are shown in the tables, are identified by letter headings above the columns in accordance with the following legend: […]

Wild buckwheat [5] = test: Pre-emergence herbicide test; conditions: Fallopia convolvulus, 11.21 kg/ha, read-out: % plant inhibition (Wibw)
Procedure: as §2, §3, §4, §5

Indian Mustard [6] = test: Pre-emergence herbicide test; conditions: Brassica juncea, 11.21 kg/ha, read-out: % plant inhibition (Inmu)
Procedure: as §2, §3, §4, §5

Yellow nutsedge [7] = test: Pre-emergence herbicide test; conditions: Cyperus, 11.21 kg/ha, read-out: % plant inhibition (Yens)
Procedure: as §2, §3, §4, §5

Seedling johnsongrass [8] = test: Pre-emergence herbicide test; conditions: Sorghum halepense, 11.21 kg/ha, read-out: % plant inhibition (Sejg)
Procedure: as §2, §3, §4, §5

Downy Brome [9] = test: Pre-emergence herbicide test; conditions: Bromus tectorum, 11.21 kg/ha, read-out: % plant inhibition (Dobr)
Procedure: as §2, §3, §4, §5

Barnyardgrass [10] = test: Pre-emergence herbicide test; conditions: Echinochloa crus-galli, 11.21 kg/ha, read-out: % plant inhibition (Bygr)
Procedure: as §2, §3, §4, §5

Cocklebur [11] = test: Pre-emergence herbicide test; conditions: Xanthium strumarium, 11.21 kg/ha, read-out: % plant inhibition (Cobu)
Procedure: as §2, §3, §4, §5

Annual bluegrass [12] = test: Pre-emergence herbicide test; conditions: 11.21 kg/ha, read-out: % plant inhibition (Anbg)
Procedure: as §2, §3, §4, §5

Morningglory [13] = test: Pre-emergence herbicide test; conditions: Ipomoea, 11.21 kg/ha, read-out: % plant inhibition (Mogl)
Procedure: as §2, §3, §4, §5

Velvetleaf [14] = test: Post-emergence herbicide test; conditions: Abutilon theophrasti, 11.21 kg/ha, read-out: % plant inhibition (Vele)
Description: as §1

Wild buckwheat [15] = test: Post-emergence herbicide test; conditions: Fallopia convolvulus, 11.21 kg/ha, read-out: % plant inhibition (Wibw)
Description: as §1

Indian Mustard [16] = test: Post-emergence herbicide test; conditions: Brassica juncea, 11.21 kg/ha, read-out: % plant inhibition (Inmu)
Description: as §1

Downy Brome [17] = test: Post-emergence herbicide test; conditions: Bromus tectorum, 11.21 kg/ha, read-out: % plant inhibition (Dobr)
Description: as §1

Barnyardgrass [18] = test: Post-emergence herbicide test; conditions: Echinochloa crus-galli, 11.21 kg/ha, read-out: % plant inhibition (Bygr)
Description: as §1

Cocklebur [19] = test: Post-emergence herbicide test; conditions: Xanthium strumarium, 11.21 kg/ha, read-out: % plant inhibition (Cobu)
Description: as §1

Morningglory [20] = test: Post-emergence herbicide test; conditions: Ipomoea, 11.21 kg/ha, read-out: % plant inhibition (Mogl)
Description: as §1

SMILES | inhibition at 11210 g/ha (Yellow nutsedge [1]) [%] | inhibition at 11210 g/ha (Seedling johnsongrass [2]) [%] | inhibition at 11210 g/ha (Annual bluegrass [3]) [%] | inhibition at 11210 g/ha (Velvetleaf [4]) [%] | inhibition at 11210 g/ha (Wild buckwheat [5]) [%] | inhibition at 11210 g/ha (Indian Mustard [6]) [%] | inhibition at 11210 g/ha (Yellow nutsedge [7]) [%] | inhibition at 11210 g/ha (Seedling johnsongrass [8]) [%] | inhibition at 11210 g/ha (Downy Brome [9]) [%] | inhibition at 11210 g/ha (Barnyardgrass [10]) [%] | inhibition at 11210 g/ha (Cocklebur [11]) [%] | inhibition at 11210 g/ha (Annual bluegrass [12]) [%] | inhibition at 11210 g/ha (Morningglory [13]) [%] | inhibition at 11210 g/ha (Velvetleaf [14]) [%] | inhibition at 11210 g/ha (Wild buckwheat [15]) [%] | inhibition at 11210 g/ha (Indian Mustard [16]) [%] | inhibition at 11210 g/ha (Downy Brome [17]) [%] | inhibition at 11210 g/ha (Barnyardgrass [18]) [%] | inhibition at 11210 g/ha (Cocklebur [19]) [%] | inhibition at 11210 g/ha (Morningglory [20]) [%]
Cn1nc(-c2cc(NC(=O)C3(Br)CC3)c(Cl)cc2F)c(Cl)c1C(F)(F)F [Compound 500, cyclopropanecarboxamide,-1-bromo-N-[2-chloro-5-[4-chloro-1-methyl-5-(trifluoromethyl)-1H-pyrazol-3-yl]-4-fluorophenyl]-] | 0 | 90 | 50 | 70 | 90 | 30 | 0 | 70 | 80 | 30 | 40 | 10 | 60 |  |  |  |  |  |  | 
Cn1nc(C(F)(F)F)c(Cl)c1-c1ccc([N+](=O)[O-])cc1 [Compound 65] | 0 | 50 | 0 | 90 | 80 |  | 0 | 70 | 0 | 30 | 0 | 70 | 20 | 70 | 70 | 30 | 10 | 70 | 40 | 50
Cn1nc(C(F)(F)F)c(Cl)c1-c1cc(F)c([N+](=O)[O-])cc1F [Compound 70] | 0 | 10 | 10 | 90 | 80 | 80 | 0 | 80 | 20 | 40 | 20 | 40 | 80 | 50 |  | 20 | 10 | 40 | 30 | 40
Cn1nc(-c2cc(F)c(Cl)cc2Cl)c(Cl)c1C(F)(F)F [Compound 84] | 10 | 40 | 10 | 100 | 100 | 100 | 30 | 100 | 100 | 100 | 80 | 100 | 90 | 100 |  | 0 | 0 | 10 | 20 | 50
Cn1nc(C(F)(F)F)c(Br)c1-c1cc(F)ccc1F [Compound 68] | 0 | 0 | 0 | 40 |  | 0 | 30 | 10 | 0 | 10 | 0 | 0 | 30 | 0 | 0 | 0 | 0 | 0 | 0 | 0
